Where two headings read alike, the source gives them in different places.
Key:
[1] = tested on: CYP3A4; conditions: literature statement (Gibbons 2015, Dirix 2016); cited from earlier work
[2] = tested on: LnCAP; test: Cell proliferation / viability assay (7 days after treatment), AC50 and HSA combination benefit; type: cell-based; conditions: Homo sapiens; LnCAP (mHSPC) cells; monotherapy; mean of two independent experiments each in triplicate
Experimental: (§1) The following cell lines were originally obtained from ATCC:
(§2) Cell line identification was validated using the CellCheck assay (IDEXX Bioanalytics, Westbrook, ME, USA). All cell lines were validated free of virus Mycoplasma contamination using the MycoSEQ assay (Thermo Fisher Scientific, Waltham, MA, USA) or STAT-Myco assay (IDEXX Bioanalytics). All cell lines were grown RPMI-1640 growth media (Corning 17-105-CV) supplemented with 10% fetal bovine serum (FBS) or, when indicated, 10% charcoal stripped FBS (ThermoFisher Scientific, 12676029) and 2 mM glutamine.
(§3) Cells in 384-well or 96-well plates were dosed using an Echo 555 (LabCyte, San Jose, CA, USA) or using the HP D300e Digital Dispenser (HP Life Science Dispensing), respectively. Live cell count pre- and post-treatment (7 days after treatment) was determined using CellTiter-Glo as per manufacturer's instructions (Promega, Madison, WI, USA; G7570).
(§4) Cell viability was determined with the Sytox Green assay as described in Davies 2012 and the AC50 calculated. The HSA (Highest Single Agent) Synergy Score was calculated according to Bernenbaum 1989.

[3] = tested on: LnCAP 95; test: as above; type: cell-based; conditions: LnCAP 95 (mCRPC) cells; monotherapy; mean of two independent experiments each in triplicate
Experimental: as §1, §2, §3, §4

[4] = tested on: CWR22Pc-R1-AD1; test: as above; type: cell-based
Experimental: as §1
Cell line identification was validated using the CellCheck assay (IDEXX Bioanalytics, Westbrook, ME, USA). All cell lines were validated free of virus Mycoplasma contamination using the MycoSEQ assay (Thermo Fisher Scientific, Waltham, MA, USA) or STAT-Myco assay (IDEXX Bioanalytics).
Live cell count pre- and post-treatment (7 days after treatment) was determined using CellTiter-Glo as per manufacturer's instructions (Promega, Madison, WI, USA; G7570).

[5] = tested on: non-metastatic CRPC; conditions: patients with non-metastatic CRPC, ARAMIS trial; placebo 18.5 months; cited from earlier work

SMILES | CYP3A4 interaction (inducer / substrate) [1] | AC50 [2] | AC50 [3] | AC50 ([4]; CWR22Pc-R1-AD1 (mCRPC) cells, monotherapy, mean of two independent experiments each in triplicate, read-out: AC50) | metastasis free survival [5] | AC50 [4]
O=C(c1cc(Cc2n[nH]c(=O)c3ccccc23)ccc1F)N1CCN(C(=O)C2CC2)CC1 [Olaparib] | substrate of CYP3A4 |  |  |  |  | 
CNC(=O)c1ccc(N2C(=S)N(c3ccc(C#N)c(C(F)(F)F)c3)C(=O)C2(C)C)cc1F [enzalutamide] | strong CYP3A4 inducer |  |  |  |  | 
CCc1cc2ncc(CN3CCN(c4ccc(C(=O)NC)nc4)CC3)cc2[nH]c1=O [AZD5305, 5-{4-[(7-ethyl-6-oxo-5,6-dihydro-1,5-naphthyridin-3-yl)methyl]piperazin-1-yl}-N-methylpyridine-2-carboxamide] |  | 0.285 µM | 0.7 µM | 0.00566 µM |  | 
CC(O)c1cc(C(=O)N[C@@H](C)Cn2ccc(-c3ccc(C#N)c(Cl)c3)n2)n[nH]1 (stereo partly drawn) [Darolutamide, N—((S)-1-(3-(3-chloro-4-cyanophenyl)-1H-pyrazol-1-yl)propan-2-yl)-5-(1-hydroxyethyl)-1H-pyrazole-3-carboxamide] |  | 3.63 µM | 17.5 µM |  | 40.4 months | 0.0655 µM
